Entries after “also recorded” stand apart in the source; their conditions may differ.
Test system: human insulin receptor
Test: in vitro binding to the human insulin receptor
Details: compared with wild-type biosynthetic human insulin (Figure S10)

For [(1-^13C=^18O)Phe^B24]human insulin, the receptor-binding activity was “full insulin receptor binding activity; also recorded: fully active in insulin receptor binding”.

— PMC5477233 (Chembiochem : a European journal of chemical biology, 2016)
